{"source": "ChEMBL document CHEMBL1201862", "about": "“PubChem BioAssay data set” (2004)", "key": {"[1]": {"molecular_target": "E3 ubiquitin-protein ligase Mdm2 (Homo sapiens, UniProt Q00987)", "sequence (Q00987 whole entry)": "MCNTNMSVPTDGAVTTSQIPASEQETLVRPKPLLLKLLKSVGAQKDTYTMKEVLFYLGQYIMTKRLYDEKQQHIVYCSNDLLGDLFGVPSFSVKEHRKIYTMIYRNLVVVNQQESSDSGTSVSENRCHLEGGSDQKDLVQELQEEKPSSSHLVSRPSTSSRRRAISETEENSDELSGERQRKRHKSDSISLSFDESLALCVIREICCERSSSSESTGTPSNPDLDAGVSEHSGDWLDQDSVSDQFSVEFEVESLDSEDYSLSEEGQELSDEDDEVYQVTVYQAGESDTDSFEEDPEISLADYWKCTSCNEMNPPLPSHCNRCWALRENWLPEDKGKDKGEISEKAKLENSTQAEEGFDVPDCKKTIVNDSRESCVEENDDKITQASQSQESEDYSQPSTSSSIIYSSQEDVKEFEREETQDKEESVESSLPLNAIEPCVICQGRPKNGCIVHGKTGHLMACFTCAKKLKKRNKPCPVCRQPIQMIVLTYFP", "assay": "enhancers of MDM2-luciferase reporter signal, concentration-effect titration, project on inhibitors of MDM2 ubiquitin ligase, cellular assay, luminescent readout, 384-well plate format (AID 1394);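 also: MDM2 E3 inhibitors raise luminescence so EC50 is for signal enhancement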", "format": "functional"}, "[2]": {"assay": "A549 cell cytotoxicity, dose response, cytotoxicity control, cherry-picks, 26 µM top dose (AID 1053119)", "format": "functional, cell-based"}, "H4": {"tested_on": "H4", "assay": "Luminescence Cell-Based Dose Response HTS to Identify Activators of 5'UTR Stem-Loop Driven Prion Protein mRNA Translation in H4 Neuroglioblastoma Cells. [Related pubchem assays: 1829 (Project Summary), 1814 (Primary HTS)]", "format": "functional", "conditions": "Homo sapiens"}, "[3]": {"assay": "non-specific cell cytotoxicity, dose response, cytotoxicity control for PAX8 inhibitor project, plate reader, dry powder samples (AID 743021)", "format": "functional, cell-based"}, "[4]": {"assay": "Luminescence Cell-Based Dose Confirmation HTS to Identify Activators of 5'UTR Stem-Loop Driven Alpha-Synuclein mRNA Translation in H4 Neuroglioblastoma Cells. [Related pubchem assays: 1829 (Project Summary), 1814 (Primary HTS)]", "format": "functional"}, "[5]": {"assay": "Luminescence Cell-Based Dose Response HTS to Identify Activators of Luciferase Translation or Activity in H4 […] Cells. [Related pubchem assays: 1829 (Project Summary), 1814 (Primary HTS)]", "format": "functional"}, "[6]": {"assay": "inhibitors of PGC1a acetylation in cells, dose response, cell-based, cherry-picked samples (AID 720514);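 also: potency may reflect raised or lowered acetylation signal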", "format": "functional"}, "[7]": {"molecular_target": "T1, Oxysterols receptor LXR-beta (Homo sapiens, UniProt P55055)", "T1 sequence (P55055 whole entry)": "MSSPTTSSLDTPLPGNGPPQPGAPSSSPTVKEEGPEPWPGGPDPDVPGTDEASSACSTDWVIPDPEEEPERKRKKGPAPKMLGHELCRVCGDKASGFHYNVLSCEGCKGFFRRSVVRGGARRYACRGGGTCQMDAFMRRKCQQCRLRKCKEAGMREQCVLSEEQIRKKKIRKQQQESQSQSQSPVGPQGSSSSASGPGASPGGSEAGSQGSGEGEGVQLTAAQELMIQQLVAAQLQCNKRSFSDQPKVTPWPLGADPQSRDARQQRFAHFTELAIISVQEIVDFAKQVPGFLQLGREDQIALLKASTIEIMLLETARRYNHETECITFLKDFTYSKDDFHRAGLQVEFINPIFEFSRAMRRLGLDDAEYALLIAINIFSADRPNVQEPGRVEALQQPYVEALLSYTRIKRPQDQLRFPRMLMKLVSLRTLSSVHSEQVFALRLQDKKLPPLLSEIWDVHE", "assay": "LXR agonists, Gal4 luciferase reporter, dose response, counter-screen for ssDAF-12 agonist project, cell-based, luminescence, HEK293, S. stercoralis campaign (AID 720737)", "format": "functional", "conditions": "read-out: IC50 (the source's name)"}, "Protein skinhead-1": {"molecular_target": "T2, Protein skinhead-1 (Caenorhabditis elegans, UniProt P34707)", "T2 sequence (P34707 whole entry)": "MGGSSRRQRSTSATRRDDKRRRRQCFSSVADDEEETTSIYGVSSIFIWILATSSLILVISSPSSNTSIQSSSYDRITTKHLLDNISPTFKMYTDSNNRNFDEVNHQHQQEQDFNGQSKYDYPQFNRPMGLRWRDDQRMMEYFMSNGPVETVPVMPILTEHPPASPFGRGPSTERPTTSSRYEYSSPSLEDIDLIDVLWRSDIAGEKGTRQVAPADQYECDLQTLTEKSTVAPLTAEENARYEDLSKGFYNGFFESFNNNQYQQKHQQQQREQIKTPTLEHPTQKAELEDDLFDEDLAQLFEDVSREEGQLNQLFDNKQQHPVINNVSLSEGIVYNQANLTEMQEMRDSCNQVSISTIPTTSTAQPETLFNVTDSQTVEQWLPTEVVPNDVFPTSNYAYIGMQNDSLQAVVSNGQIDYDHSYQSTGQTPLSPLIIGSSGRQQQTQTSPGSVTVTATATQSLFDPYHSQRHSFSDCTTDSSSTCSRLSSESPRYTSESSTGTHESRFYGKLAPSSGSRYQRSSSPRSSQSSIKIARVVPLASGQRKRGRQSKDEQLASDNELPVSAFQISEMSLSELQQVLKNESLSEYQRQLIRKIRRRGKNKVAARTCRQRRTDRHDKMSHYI", "format": "functional"}, "[8]": {"assay": "Luminescence Cell-Based Dose Confirmation HTS to Identify Inhibitors of Platelet Dense Granule Release. [Related pubchem assays: 1663 (Primary HTS), 1678 (Summary of Project)]", "format": "functional"}, "[9]": {"molecular_target": "Luciferin 4-monooxygenase (Photinus pyralis, UniProt P08659)", "sequence (P08659 whole entry)": "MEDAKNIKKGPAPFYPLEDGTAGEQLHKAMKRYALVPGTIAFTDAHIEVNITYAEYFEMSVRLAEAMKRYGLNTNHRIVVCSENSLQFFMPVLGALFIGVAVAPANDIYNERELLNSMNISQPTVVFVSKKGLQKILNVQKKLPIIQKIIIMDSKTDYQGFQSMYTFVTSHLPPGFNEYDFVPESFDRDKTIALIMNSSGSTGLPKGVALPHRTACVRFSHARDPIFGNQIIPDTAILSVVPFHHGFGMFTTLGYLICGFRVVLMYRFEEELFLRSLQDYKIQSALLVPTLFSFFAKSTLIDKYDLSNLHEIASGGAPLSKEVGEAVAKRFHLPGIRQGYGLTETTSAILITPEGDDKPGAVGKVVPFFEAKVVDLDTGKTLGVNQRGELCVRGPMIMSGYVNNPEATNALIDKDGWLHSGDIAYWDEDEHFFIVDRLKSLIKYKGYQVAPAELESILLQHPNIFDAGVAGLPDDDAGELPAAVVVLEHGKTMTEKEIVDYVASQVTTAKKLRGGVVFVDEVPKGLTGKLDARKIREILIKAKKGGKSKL", "assay": "firefly luciferase enzyme inhibitors, dose response, biochemical, luminescence (AID 1891)"}, "[10]": {"molecular_target": "T1, Oxysterols receptor LXR-beta", "format": "functional, cell-based"}, "[11]": {"assay": "Luminescence-based cell-based high throughput dose response assay to identify activators of the DAF-12 from the parasite S. stercoralis (ssDAF-12).", "format": "functional"}, "Ephrin type-A receptor 4": {"molecular_target": "Ephrin type-A receptor 4 (Mus musculus, UniProt Q03137)", "sequence (Q03137 whole entry)": "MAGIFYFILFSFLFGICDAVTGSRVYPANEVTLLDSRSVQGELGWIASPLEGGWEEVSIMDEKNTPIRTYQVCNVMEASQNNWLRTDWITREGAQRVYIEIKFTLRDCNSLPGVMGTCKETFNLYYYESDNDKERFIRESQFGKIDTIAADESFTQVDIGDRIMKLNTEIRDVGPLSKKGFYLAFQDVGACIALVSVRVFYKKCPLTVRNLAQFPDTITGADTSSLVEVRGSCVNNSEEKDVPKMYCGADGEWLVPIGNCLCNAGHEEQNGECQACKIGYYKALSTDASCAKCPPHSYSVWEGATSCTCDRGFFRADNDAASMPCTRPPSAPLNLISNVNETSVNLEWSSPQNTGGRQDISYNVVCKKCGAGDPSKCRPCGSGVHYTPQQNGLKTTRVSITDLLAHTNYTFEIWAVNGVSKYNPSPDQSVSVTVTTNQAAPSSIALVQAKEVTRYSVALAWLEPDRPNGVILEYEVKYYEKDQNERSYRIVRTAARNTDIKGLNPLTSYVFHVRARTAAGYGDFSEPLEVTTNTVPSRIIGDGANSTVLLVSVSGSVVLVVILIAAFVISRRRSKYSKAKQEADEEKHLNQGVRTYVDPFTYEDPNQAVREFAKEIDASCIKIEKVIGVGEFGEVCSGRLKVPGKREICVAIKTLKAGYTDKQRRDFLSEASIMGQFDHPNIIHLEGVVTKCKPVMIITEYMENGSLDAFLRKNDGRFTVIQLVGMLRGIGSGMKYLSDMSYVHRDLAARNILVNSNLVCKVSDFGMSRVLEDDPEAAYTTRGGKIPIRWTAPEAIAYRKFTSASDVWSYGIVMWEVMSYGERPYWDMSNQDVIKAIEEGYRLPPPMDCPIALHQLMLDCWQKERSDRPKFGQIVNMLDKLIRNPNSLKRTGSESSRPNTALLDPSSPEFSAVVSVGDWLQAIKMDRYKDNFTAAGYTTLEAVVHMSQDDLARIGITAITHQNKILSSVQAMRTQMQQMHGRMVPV", "assay": "inhibitors of EphA4 binding to KYL peptide, primary screen, biochemical, colorimetric, mouse EphA4 (AID 689)", "format": "functional"}, "[12]": {"assay": "Fluorescence Cell-Based Dose Response to Identify Inhibitors of Thrombin Receptor-Activating Peptide SFLLRN-Mediated P-Selectin Induction on Platelets. [Related pubchem assays: 1663 (Primary HTS), 1889 (retest at dose ), 1891 (counterscreen), 1678 (Project Summary)]", "format": "functional"}, "[13]": {"assay": "Luminescence Cell-Based Dose Confirmation HTS to Identify Inhibitors of Polyadenylation.", "format": "functional"}, "[14]": {"assay": "P. falciparum Dd2 growth inhibitors, dose response, SYBR Green, cherry-picked samples (AID 1159567)", "format": "functional, cell-based"}, "[15]": {"assay": "P. falciparum Dd2 growth inhibitors, dose response, SYBR Green, dry powder samples (AID 1159566);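 also: potency for growth inhibition with lower SYBR green DNA signal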", "format": "functional, cell-based"}, "[16]": {"assay": "P. falciparum ATP4 D1247Y mutant growth inhibitors, dose response, NITD609-resistant line, SYBR Green, dry powder (AID 1159571);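 also: parasites synchronized at ring stage by sorbitol before testing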", "format": "functional, cell-based"}, "[17]": {"assay": "P. falciparum 3D7-ScDHODH growth inhibitors, dose response, SYBR Green, dry powder samples (AID 1159570);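 also: parasite growth measured after 72 hours of compound exposure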", "format": "functional, cell-based"}, "[18]": {"assay": "HepG2 cell cytotoxicity, dose response, cytotoxicity control, plate reader, dry powder samples (AID 1159569);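 also: inhibitor potency with signal falling toward the positive control level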", "format": "functional, cell-based"}, "[19]": {"assay": "MC4R antagonists, dose response, counter-screen for LGR2 antagonist project, cell-based, plate reader, cherry pick (AID 743444);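 also: transfected HEK 293 cells stimulated with alpha-MSH peptide; potency of inhibitors of the alpha-MSH evoked signal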", "format": "functional"}, "[20]": {"assay": "HepG2 cell cytotoxicity, dose response, cytotoxicity control, plate reader, cherry-pick, antagonist series (AID 743416)", "format": "functional, cell-based"}, "Prothrombin": {"molecular_target": "Prothrombin (Homo sapiens, UniProt P00734)", "assay": "Thrombin 1536 HTS Dose Response Confirmation. [Related pubchem assays: 1046 (Thrombin 1536 HTS; hits were confirmed in this assay)]", "format": "functional"}, "[21]": {"assay": "HEK293 cell cytotoxicity, dose response, cytotoxicity control, plate reader, cherry-picked samples (AID 743446)", "format": "functional, cell-based"}, "[22]": {"assay": "A549 cell cytotoxicity, dose response, cytotoxicity control, plate reader, cherry-pick, antagonist series (AID 743412)", "format": "functional, cell-based"}, "[23]": {"assay": "M. tuberculosis H37Rv growth inhibitors, H37Rv strain (AID 1626)", "format": "functional"}, "BJ": {"tested_on": "BJ", "assay": "cytotoxicity toward Ras-transformed BJeLR fibroblasts, dose response, cell-based, alamar blue fluorescence, cherrypicked samples (AID 2631);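 also: confirmatory dose-response assay in RAS-dependent BJ fibroblasts engineered with TERT, LT and ST, with cytotoxicity read by fluorescence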", "format": "functional", "conditions": "Homo sapiens"}}, "note": "The source made the active and inactive calls.", "data": [{"smiles": "O=C1NC(=O)c2cc(NC(=O)C3COc4ccccc4O3)ccc21", "note": "(configuration not stated)", "values": [{"measurement": "EC50", "setting": "[1]", "result": "6.75 µM (not active)"}]}, {"smiles": "Cc1ccn2cc(-c3ccc(NC(=O)c4ccco4)cc3)nc2c1", "values": [{"measurement": "AC50", "setting": "[2]", "result": "> 52 µM (inactive)"}]}, {"smiles": "O=C(CSc1ncccc1-c1nc2ccccc2[nH]1)N1CCc2ccccc21", "values": [{"measurement": "EC50", "setting": "H4", "result": "21.1 µM (inconclusive)"}, {"measurement": "AC50", "setting": "[3]", "result": "59.9 µM (active)"}, {"measurement": "EC50", "setting": "[4]", "result": "15.1 µM (active)"}, {"measurement": "EC50", "setting": "[5]", "result": "4.81 µM (active)"}]}, {"smiles": "C[C@H](CO)N1C[C@H](C)[C@@H](CN(C)Cc2cccnc2)Oc2cc(C#CC3CCCCC3)ccc2S1(=O)=O", "values": [{"measurement": "AC50", "setting": "[6]", "result": "6.45 µM (active)"}]}, {"smiles": "COc1cccc(-c2nc(-c3cccs3)no2)c1", "values": [{"measurement": "EC50", "setting": "[7]", "result": "> 67.6 µM (inactive)"}, {"measurement": "IC50", "setting": "Protein skinhead-1", "result": "> 100 µM (inactive)"}, {"measurement": "EC50", "setting": "[8]", "result": "> 112 µM (not active)"}, {"measurement": "EC50", "setting": "cells", "result": "> 67.6 µM (inactive)"}, {"measurement": "EC50", "setting": "[9]", "result": "> 112 µM (not active)"}, {"measurement": "EC50", "setting": "[10]", "result": "> 67.6 µM (inactive)"}, {"measurement": "IC50", "setting": "[11]", "result": "> 67.6 µM (inactive)"}]}, {"smiles": "COc1cccc(C2(CSc3nnc(-c4cc(OC)c(OC)c(OC)c4)o3)OCCO2)c1", "values": [{"measurement": "IC50", "setting": "Ephrin type-A receptor 4", "result": "> 100 µM (not active)"}]}, {"smiles": "COc1ccccc1-n1cc(-c2ccc(Cl)cc2)nc1O", "values": [{"measurement": "EC50", "setting": "[8]", "result": "1.89 µM (active)"}, {"measurement": "EC50", "setting": "[9]", "result": "> 112 µM (not active)"}, {"measurement": "EC50", "setting": "[12]", "result": "< 0.3 µM (active)"}]}, {"smiles": "Cn1c(=O)c(C(=O)NNC(=O)c2ccccc2Cl)c(O)c2ccccc21", "values": [{"measurement": "EC50", "setting": "[13]", "result": "> 120 µM (not active)"}]}, {"smiles": "C[C@H](CO)N1C[C@H](C)[C@@H](CN(C)C(=O)c2ccc(F)cc2)Oc2ncc(/C=C/c3ccccc3)cc2C1=O", "values": [{"measurement": "AC50", "setting": "[14]", "result": "1.63 µM (active)"}, {"measurement": "AC50", "setting": "[15]", "result": "1.58 µM (active)"}, {"measurement": "AC50", "setting": "[16]", "result": "1.65 µM (active)"}, {"measurement": "AC50", "setting": "[17]", "result": "2.68 µM (active)"}, {"measurement": "AC50", "setting": "[18]", "result": "85.2 µM (active)"}]}, {"smiles": "Cc1ccc2c(c1)C1CN(C)CCC1N2C(=O)c1cn(-c2ccccc2)nc1-c1ccccc1", "note": "(configuration not stated)", "values": [{"measurement": "AC50", "setting": "[19]", "result": "55.6 µM (active)"}, {"measurement": "AC50", "setting": "[20]", "result": "> 52 µM (inactive)"}, {"measurement": "IC50", "setting": "Prothrombin", "result": "3.04 µM (active)"}, {"measurement": "AC50", "setting": "[21]", "result": "35.3 µM (active)"}, {"measurement": "AC50", "setting": "[22]", "result": "36.4 µM (active)"}]}, {"smiles": "COCc1cn([C@@H]2C[C@@H]3O[C@@H](CO)CC[C@@H]3O[C@@H]2CCc2ccc(-c3ccc(OC)cc3)cc2)nn1", "values": [{"measurement": "AC50", "setting": "[14]", "result": "1.12 µM (active)"}, {"measurement": "AC50", "setting": "[15]", "result": "0.362 µM (active)"}, {"measurement": "AC50", "setting": "[16]", "result": "0.451 µM (active)"}, {"measurement": "AC50", "setting": "[17]", "result": "0.231 µM (active)"}, {"measurement": "AC50", "setting": "[18]", "result": "43 µM (active)"}]}, {"smiles": "CC(=O)Nc1ccc(NC(=O)c2ccc(C3SCC(=O)N3CCc3ccccc3)cc2)cc1", "note": "(configuration not stated)", "values": [{"measurement": "IC50", "setting": "[23]", "result": "> 100 µM (active)"}]}, {"smiles": "CCc1c(C)c(C#N)c2nc3ccccc3n2c1Cl", "values": [{"measurement": "EC50", "setting": "BJ", "result": "0.443 µM (inconclusive)"}, {"measurement": "EC50", "setting": "[1]", "result": "9.98 µM (not active)"}]}]}
